Assay results published in ChEMBL document CHEMBL4190379 (Bioorg Med Chem Lett, 2018).

How the values were obtained:
[1] = biological target: T1, E3 ubiquitin-protein ligase TRIM33 (Homo sapiens) (UniProt Q9UPN9); assay: Binding affinity to human TRIM33-phd-bromo expressed in bacterial system assessed as remaining binding level at 1 uM by BROMOscan assay relative to control
T1 sequence (whole entry): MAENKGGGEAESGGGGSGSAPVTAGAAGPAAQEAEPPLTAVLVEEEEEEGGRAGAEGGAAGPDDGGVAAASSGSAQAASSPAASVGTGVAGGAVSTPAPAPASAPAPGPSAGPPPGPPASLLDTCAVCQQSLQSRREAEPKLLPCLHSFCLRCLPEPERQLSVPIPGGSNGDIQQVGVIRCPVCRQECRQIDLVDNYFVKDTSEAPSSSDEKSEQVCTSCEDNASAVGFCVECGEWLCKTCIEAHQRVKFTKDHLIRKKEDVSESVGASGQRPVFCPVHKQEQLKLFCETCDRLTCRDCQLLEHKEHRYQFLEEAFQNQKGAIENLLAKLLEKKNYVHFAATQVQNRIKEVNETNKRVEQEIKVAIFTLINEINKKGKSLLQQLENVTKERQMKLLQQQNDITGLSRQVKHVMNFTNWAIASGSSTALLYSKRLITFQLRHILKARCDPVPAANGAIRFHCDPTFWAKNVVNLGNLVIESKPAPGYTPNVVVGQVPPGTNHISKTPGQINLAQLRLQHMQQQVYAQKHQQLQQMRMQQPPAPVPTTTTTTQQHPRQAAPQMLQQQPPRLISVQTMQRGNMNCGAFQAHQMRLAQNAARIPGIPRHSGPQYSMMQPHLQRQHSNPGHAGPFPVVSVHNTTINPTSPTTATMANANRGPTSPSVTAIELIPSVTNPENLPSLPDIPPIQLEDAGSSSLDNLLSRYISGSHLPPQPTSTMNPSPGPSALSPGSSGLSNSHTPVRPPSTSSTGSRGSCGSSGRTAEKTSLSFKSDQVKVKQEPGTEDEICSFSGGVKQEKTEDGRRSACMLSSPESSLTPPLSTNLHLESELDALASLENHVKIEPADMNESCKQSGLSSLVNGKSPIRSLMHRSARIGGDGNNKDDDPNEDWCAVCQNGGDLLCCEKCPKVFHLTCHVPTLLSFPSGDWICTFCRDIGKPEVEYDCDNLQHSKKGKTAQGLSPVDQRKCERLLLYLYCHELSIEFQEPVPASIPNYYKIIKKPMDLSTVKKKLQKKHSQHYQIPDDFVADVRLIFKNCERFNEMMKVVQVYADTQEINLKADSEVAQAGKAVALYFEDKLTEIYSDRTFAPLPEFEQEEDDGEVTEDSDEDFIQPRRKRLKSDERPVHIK

[2] = biological target: Bromodomain-containing protein 4 (Homo sapiens, UniProt O60885); assay: Binding affinity to BRD4 bromodomain 1 (K57 to E168 amino acids) (unknown origin) using Alexa647-labeled BET-inhibitor as fluorescent probe by bromodomain TR-FRET binding assay
[3] = biological target: Bromodomain testis-specific protein (Homo sapiens, UniProt Q58F21); assay: Binding affinity to BRDT bromodomain 1 to 2 (N21to P380 amino acids) (unknown origin) using Alexa647-labeled BET-inhibitor as fluorescent probe by bromodomain TR-FRET binding assay
[4] = biological target: Protein polybromo-1 (Homo sapiens) (UniProt Q86U86); assay: Binding affinity to human PBRM1 bromodomain 2 expressed in bacterial system assessed as remaining binding level at 1 uM by BROMOscan assay relative to control
Chain of Protein polybromo-1 (Homo sapiens) (Q86U86 whole entry, the tested form may be a part): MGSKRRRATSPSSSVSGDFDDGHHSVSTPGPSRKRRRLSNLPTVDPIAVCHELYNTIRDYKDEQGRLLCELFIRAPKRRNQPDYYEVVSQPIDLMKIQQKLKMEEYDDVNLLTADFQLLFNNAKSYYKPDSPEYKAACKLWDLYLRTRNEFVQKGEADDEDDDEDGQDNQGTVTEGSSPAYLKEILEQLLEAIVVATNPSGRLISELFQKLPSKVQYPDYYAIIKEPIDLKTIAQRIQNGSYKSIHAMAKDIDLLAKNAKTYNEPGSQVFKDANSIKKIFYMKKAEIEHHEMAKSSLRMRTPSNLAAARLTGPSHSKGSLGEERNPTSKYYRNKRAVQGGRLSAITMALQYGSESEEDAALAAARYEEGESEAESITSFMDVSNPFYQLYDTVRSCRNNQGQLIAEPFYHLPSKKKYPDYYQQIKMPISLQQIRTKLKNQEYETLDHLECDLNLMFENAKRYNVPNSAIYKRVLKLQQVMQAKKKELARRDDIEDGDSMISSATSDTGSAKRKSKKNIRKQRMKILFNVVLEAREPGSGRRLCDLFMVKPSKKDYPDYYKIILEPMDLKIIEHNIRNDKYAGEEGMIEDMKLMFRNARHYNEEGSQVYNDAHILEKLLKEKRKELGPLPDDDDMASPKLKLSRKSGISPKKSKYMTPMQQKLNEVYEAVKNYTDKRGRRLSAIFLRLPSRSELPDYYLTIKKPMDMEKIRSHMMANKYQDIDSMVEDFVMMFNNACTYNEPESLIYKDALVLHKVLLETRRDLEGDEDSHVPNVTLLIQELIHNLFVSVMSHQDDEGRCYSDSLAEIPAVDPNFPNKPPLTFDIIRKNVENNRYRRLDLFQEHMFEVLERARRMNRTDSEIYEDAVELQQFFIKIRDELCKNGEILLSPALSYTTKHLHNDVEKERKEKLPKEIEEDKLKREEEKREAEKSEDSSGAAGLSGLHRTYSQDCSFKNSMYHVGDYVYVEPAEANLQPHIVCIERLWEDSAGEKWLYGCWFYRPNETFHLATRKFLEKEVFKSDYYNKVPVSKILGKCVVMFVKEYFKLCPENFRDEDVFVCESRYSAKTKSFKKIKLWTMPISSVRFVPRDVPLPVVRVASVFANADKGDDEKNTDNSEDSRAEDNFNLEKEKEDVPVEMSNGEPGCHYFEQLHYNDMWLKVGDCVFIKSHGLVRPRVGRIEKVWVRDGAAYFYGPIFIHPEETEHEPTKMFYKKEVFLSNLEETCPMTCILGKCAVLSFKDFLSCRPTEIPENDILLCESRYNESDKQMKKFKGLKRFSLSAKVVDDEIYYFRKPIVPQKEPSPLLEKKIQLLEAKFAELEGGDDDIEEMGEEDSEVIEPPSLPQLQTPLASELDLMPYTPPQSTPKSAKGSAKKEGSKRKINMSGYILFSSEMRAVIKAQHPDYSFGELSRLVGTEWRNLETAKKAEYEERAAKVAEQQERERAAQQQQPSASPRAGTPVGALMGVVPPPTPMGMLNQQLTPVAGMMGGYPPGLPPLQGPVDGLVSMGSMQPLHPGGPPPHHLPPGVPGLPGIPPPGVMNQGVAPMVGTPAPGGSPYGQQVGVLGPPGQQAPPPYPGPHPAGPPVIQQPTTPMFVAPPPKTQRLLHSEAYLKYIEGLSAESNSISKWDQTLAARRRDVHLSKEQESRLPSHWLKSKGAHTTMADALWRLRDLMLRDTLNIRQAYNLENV

[5] = biological target: Bromodomain-containing protein 3 (Homo sapiens, UniProt Q15059); assay: Binding affinity to BRD3 bromodomain 1 to 2 (P24 to P416 amino acids) (unknown origin) using Alexa647-labeled BET-inhibitor as fluorescent probe by bromodomain TR-FRET binding assay
Chain of Bromodomain-containing protein 3 (Q15059 whole entry, the tested form may be a part): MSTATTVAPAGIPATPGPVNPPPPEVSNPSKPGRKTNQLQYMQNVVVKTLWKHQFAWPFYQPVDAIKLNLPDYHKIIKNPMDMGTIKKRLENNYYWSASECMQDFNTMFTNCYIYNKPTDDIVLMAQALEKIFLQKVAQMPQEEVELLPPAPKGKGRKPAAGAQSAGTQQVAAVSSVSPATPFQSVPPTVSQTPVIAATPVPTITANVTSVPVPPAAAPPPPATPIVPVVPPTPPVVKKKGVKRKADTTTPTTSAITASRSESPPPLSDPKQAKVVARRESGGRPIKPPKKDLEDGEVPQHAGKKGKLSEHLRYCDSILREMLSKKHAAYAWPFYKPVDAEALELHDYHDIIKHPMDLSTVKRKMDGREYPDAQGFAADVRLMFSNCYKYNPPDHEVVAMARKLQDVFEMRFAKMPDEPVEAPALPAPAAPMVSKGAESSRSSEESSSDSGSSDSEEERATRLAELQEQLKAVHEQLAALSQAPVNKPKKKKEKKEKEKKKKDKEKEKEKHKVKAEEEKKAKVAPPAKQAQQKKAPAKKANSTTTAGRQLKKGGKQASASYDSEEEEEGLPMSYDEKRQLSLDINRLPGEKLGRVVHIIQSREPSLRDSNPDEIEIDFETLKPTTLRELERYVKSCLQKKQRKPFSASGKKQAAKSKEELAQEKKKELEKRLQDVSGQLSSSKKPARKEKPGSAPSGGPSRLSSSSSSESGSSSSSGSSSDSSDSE

[6] = biological target: SWI/SNF-related matrix-associated actin-dependent regulator of chromatin subfamily A member 4 (Homo sapiens) (UniProt P51532); assay: Binding affinity to human SMARCA4 expressed in bacterial system assessed as remaining binding level at 1 uM by BROMOscan assay relative to control
[7] = Permeability of the compound by PAMPA method; type: ADME; settings: read-out: permeability
[8] = biological target: Transcription initiation factor TFIID subunit 1 (Homo sapiens) (UniProt P21675); assay: Binding affinity to human TAF1 bromodomain 2 expressed in bacterial system assessed as remaining binding level at 1 uM by BROMOscan assay relative to control
Chain of Transcription initiation factor TFIID subunit 1 (Homo sapiens) (P21675 whole entry): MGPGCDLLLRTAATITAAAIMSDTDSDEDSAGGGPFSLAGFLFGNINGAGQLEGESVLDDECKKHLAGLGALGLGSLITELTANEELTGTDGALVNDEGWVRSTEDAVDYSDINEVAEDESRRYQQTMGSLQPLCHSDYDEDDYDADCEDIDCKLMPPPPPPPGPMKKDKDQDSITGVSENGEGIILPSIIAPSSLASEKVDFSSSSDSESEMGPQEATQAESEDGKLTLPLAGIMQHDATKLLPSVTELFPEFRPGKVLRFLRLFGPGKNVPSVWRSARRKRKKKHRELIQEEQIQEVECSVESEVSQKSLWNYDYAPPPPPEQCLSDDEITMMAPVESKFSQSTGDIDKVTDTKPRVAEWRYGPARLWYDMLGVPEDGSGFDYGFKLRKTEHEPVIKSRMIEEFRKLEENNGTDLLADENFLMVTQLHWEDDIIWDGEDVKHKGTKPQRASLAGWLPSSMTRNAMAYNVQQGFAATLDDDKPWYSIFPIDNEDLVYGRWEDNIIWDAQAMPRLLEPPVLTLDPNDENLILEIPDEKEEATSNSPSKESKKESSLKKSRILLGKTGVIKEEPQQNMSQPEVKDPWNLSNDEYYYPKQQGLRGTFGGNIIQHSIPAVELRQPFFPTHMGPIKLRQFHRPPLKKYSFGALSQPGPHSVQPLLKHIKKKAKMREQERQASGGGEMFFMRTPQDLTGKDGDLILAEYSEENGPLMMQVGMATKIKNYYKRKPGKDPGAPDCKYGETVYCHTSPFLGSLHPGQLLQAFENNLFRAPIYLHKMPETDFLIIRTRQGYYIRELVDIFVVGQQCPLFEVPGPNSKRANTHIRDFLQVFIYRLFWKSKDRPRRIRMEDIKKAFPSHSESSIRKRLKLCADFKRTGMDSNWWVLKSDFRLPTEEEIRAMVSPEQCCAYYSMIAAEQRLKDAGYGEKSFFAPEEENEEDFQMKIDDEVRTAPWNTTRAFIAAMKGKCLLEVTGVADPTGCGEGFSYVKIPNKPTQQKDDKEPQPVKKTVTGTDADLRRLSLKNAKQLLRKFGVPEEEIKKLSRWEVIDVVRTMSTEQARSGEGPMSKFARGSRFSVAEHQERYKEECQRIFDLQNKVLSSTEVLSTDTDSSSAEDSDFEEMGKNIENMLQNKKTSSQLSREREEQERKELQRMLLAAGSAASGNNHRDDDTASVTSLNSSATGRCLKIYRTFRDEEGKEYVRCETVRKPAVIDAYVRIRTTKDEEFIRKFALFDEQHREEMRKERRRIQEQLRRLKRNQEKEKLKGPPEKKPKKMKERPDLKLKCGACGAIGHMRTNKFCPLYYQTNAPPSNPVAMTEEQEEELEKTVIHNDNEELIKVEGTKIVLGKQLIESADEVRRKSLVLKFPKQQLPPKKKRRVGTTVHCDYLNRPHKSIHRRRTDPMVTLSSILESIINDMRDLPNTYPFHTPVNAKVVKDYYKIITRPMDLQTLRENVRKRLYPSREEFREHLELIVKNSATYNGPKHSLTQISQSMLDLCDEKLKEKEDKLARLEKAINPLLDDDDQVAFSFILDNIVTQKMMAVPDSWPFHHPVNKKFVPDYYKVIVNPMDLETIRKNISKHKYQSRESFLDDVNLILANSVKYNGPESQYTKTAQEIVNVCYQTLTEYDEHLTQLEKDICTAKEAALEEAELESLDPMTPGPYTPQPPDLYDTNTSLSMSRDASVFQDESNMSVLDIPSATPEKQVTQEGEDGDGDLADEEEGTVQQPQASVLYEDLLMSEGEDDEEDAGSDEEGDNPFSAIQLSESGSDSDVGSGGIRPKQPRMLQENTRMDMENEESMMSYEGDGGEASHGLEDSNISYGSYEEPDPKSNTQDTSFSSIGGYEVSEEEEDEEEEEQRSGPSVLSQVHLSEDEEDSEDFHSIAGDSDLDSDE

[9] = biological target: Histone acetyltransferase p300 (Homo sapiens) (UniProt Q09472); assay: Binding affinity to human EP300 expressed in bacterial system assessed as remaining binding level at 1 uM by BROMOscan assay relative to control

Activity [1]	Ki [2]	Ki [3]	Activity [4]	Ki [5]	Activity [6]	Papp [7]	Activity [8]	Activity [9]	Compound
100%	1.2 nM	5.9 nM	92%	17 nM	86%	5.1 ×10⁻⁶ cm/s	95%	42%	Cn1cc2c3c(c[nH]c(=O)c31)-c1cc(CS(C)(=O)=O)ccc1N(c1ccc(F)cc1)C2
83%	1.2 nM	0.69 nM	81%	10 nM	56%	6 ×10⁻⁶ cm/s	15%	0%	Cn1cc2c3c(c[nH]c3c1=O)CN(c1ccccn1)c1ccc(CS(C)(=O)=O)cc1-2
85%	2.6 nM	4.2 nM	79%	10 nM	90%	13 ×10⁻⁶ cm/s	3.8%	0%	Cn1cc2c3c(c[nH]c3c1=O)CN(c1ccc(F)cc1F)c1ccc(CS(C)(=O)=O)cc1-2
